# Measurements published in US20060160824A1, “Indole derivatives as serotonin reuptake inhibitors” (priority 2003, published 2006).
# Columns and labels:
# [1] = target: T1, 5-HT1A receptor (Rattus norvegicus, UniProt P19327); test: 5-HT1A receptor binding test
# T1 construct: from tissue
# T1 sequence (P19327 1-422): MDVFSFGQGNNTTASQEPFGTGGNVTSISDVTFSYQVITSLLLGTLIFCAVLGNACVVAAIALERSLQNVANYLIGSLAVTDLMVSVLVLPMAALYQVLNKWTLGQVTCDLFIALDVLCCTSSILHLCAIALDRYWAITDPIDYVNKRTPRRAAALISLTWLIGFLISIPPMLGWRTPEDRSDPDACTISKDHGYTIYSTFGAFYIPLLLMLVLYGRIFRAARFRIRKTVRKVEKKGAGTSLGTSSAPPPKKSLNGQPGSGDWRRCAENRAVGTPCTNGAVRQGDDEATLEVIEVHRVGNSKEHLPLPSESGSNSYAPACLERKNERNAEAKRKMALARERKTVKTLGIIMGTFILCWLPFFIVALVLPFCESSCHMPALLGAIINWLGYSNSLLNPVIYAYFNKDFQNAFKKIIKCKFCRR
# Description: In particular, they inhibit 5-HT reuptake. […] Due to a 5-HT-agonistic action and 5-HT reuptake inhibition, serotonin remains in the synaptic cleft for longer and the serotonin action is reinforced. Active ingredients having such properties are therefore particularly suitable as antidepressants and anxiolytics. The compounds of the formula I inhibit the binding of tritiated serotonin ligands to hippocampal receptors (Cossery et al., European J. Pharmacol. 140 (1987), 143-155) and synaptosomal serotonin reuptake (Sherman et al., Life Sci. 23 (1978), 1863-1870).
# The 5-HT1A-agonistic action can be measured in vitro, for example, with the aid of the (serotonin) binding test, as described by Matzen et al. (J. Med. Chem., 43 (2000), 1149-57), in particular on page 1156 with reference to Eur. J. Pharmacol., 140 (1987), 143-155. In addition, the 5-HT1A-agonistic action can be measured with the aid of the GTPgammaS test described by Newman-Tancredi et al. (Eur. J. Pharmacol. 307 (1996), 107-11).
# [2] = target: 5-HT4 receptor (Homo sapiens, UniProt Q13639); test: 5-HT4 receptor binding test
# 5-HT4 receptor, sequence (Q13639 whole entry): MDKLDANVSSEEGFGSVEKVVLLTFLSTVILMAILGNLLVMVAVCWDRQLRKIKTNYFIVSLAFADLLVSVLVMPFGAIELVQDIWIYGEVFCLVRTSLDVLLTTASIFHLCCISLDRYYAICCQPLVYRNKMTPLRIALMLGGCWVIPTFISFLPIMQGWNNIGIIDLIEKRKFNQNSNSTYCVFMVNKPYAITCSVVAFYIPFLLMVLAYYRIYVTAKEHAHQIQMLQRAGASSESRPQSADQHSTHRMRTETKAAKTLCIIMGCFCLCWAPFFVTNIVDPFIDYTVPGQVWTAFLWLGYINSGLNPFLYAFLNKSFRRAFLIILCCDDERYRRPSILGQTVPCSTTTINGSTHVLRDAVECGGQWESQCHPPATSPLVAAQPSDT
smiles,measurement,setting,value
"Cn1cc(CCCCN2CCN(c3ccc4oc(C(N)=O)cc4c3)CC2)c2cc(C#N)ccc21 [Example 1, 5-{4-[4-(5-cyano-1-methyl-1H-indol-3-yl)butyl]piperazin-1-yl}-benzofuran-2-carboxamide]",IC50,[1],96 nM
same,IC50,[2],21 nM
